Data: PMC3685270 (Clinical pharmacology and therapeutics, 2011)
Values after ≈ are worked out from the molar mass of the structure shown. “Also recorded” adds a separate entry of the source. Read-outs that look alike come from different tables or passages of the source.

Assays:
Pgp at the human BBB [1] = assay: [^11C]-N-desmethyl-loperamide PET after tariquidar in healthy human subjects; type: in vivo; conditions: humans, without tariquidar
[2] = target: T1, P-glycoprotein (Pgp) at the blood-brain barrier (Homo sapiens, UniProt P08183); type: in vivo; conditions: for EC50: tariquidar plasma concentration at end of PET scan
T1 sequence (P08183 whole entry): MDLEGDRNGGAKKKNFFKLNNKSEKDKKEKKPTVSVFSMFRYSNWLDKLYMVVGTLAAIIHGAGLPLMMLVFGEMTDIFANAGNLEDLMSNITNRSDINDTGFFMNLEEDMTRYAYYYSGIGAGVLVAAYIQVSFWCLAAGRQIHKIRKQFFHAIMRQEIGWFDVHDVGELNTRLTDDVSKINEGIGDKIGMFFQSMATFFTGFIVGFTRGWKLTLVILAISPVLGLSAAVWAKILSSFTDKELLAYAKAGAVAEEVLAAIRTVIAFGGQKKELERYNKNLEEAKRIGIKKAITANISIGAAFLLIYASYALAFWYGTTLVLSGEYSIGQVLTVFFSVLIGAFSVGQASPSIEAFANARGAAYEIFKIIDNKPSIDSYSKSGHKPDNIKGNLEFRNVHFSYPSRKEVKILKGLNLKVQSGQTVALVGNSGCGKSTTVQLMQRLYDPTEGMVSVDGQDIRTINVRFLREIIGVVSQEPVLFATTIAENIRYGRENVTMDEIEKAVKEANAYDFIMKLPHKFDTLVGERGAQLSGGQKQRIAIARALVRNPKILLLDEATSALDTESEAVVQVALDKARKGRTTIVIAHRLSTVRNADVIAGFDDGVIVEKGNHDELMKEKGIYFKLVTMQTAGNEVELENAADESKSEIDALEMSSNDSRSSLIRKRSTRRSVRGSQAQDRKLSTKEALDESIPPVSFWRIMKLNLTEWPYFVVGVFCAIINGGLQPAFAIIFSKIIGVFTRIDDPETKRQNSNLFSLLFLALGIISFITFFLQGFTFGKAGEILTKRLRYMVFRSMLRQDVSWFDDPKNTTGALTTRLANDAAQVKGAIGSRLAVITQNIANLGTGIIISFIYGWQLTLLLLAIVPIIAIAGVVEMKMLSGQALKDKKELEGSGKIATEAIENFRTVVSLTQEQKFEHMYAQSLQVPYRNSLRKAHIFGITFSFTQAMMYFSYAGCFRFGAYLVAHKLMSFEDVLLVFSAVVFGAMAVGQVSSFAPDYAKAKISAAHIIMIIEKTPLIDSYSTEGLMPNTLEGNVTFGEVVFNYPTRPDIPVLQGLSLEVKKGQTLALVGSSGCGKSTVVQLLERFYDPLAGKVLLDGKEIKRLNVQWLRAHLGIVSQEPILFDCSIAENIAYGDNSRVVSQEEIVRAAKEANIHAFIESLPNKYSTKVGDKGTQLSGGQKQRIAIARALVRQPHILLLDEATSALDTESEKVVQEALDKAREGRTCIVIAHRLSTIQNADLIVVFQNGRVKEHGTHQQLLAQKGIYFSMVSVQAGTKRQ

[3] = type: in vivo, human; conditions: humans, maximum administered dose 8 mg/kg
[4] = Safety monitoring / adverse events after tariquidar infusion; type: in vivo, human; conditions: for Tolerability: healthy subjects, 3, 4, 6 and 8 mg/kg i.v. infusion
Unmetabolized = type: in vivo, human; conditions: AUC 0-40 min, different tariquidar doses vs 0 mg/kg
[5] = target: T1, P-glycoprotein (Pgp) at the blood-brain barrier; conditions: (R)-[^11C]verapamil whole brain, tariquidar 2 mg/kg, n=5, cited from earlier work
[6] = system: P-glycoprotein (Pgp) at the blood-brain barrier; conditions: cited from earlier work
[7] = humans; cited from earlier work
[8] = rats, bolus administration of 30 mg/kg; cited from earlier work
[9] = system: Pgp in CD56-positive lymphocytes; conditions: single i.v. dose of 2 mg/kg, over 24 h; cited from earlier work
Pgp at the human BBB [10] = conditions: 2 mg/kg dose; cited from earlier work
[11] = previous studies (human and rat); cited from earlier work
[12] = system: breast cancer resistance protein (BCRP, ABCG2); conditions: cited from earlier work
[13] = rat, tariquidar plasma concentration at end of PET scan, 0-60 min

For CNC(=O)C(CCN1CCC(O)(c2ccc(Cl)cc2)CC1)(c1ccccc1)c1ccccc1 [[^11C]-N-desmethyl-loperamide], the “Baseline brain uptake lower as compared to (R)-[^11C]verapamil” value (Pgp at the human BBB [1]) was 2 fold.

Compound COc1cc2c(cc1OC)CN(CCc1ccc(NC(=O)c3cc(OC)c(OC)cc3NC(=O)c3cnc4ccccc4c3)cc1)CC2 [tariquidar] has an EC50 ([2]; EC50, K1–K1 baseline (1T2K), human, 0-10 min) of 0.806 µM, an EC50 ([2]; EC50, K1–K1 baseline (2T4K), human, 0-40 min) of 0.813 µM and an EC50 ([2]; EC50, VT–VT baseline (2T4K), human, 0-40 min) of 0.867 µM. The “n (Hill coefficient), K1–K1 baseline (1T2K)” value ([2]; human, 0-10 min) was 6.2±3.5, the “n (Hill coefficient), K1–K1 baseline (2T4K)” value ([2]; human, 0-40 min) was 6.3±3.5 and the “n (Hill coefficient), VT–VT baseline (2T4K)” value ([2]; human, 0-40 min) was 11.3±5.4. The “Tariquidar plasma concentration at which brain VT approached plateau levels” value ([2]; humans) was > 1,000 ng/mL, the “Tariquidar plasma concentration at time of PET” value [3] was “up to 1,312 ng/mL” and the Hypotension adverse event ([4]; 8 mg/kg group, infusion stopped 20 min prematurely (7.2 mg/kg administered)) was “one case of moderate hypotension”. For the same compound, the Tolerability [4] was “well tolerated at doses 4-times the clinically tried”, the Tolerability ([4]; listed as Tariquidar) was “generally well tolerated” and the “Dysgeusia (relationship with study drug could not be excluded)” value ([4]; healthy subjects, 3-8 mg/kg) was 6 out of 20. The “Vertigo (relationship with study drug could not be excluded)” value ([4]; healthy subjects, 3-8 mg/kg, 20 subjects) was 3 subjects, the “Effect on concentration of unmetabolized (R)-[^11C]verapamil in plasma” value (Unmetabolized) was “lacked pharmacokinetic interactions; also recorded: did not affect” and the “K1 (1T2K)” value ([5]; 0-10 min) was 0.051±0.006 (6) mL·mL^−1·min^−1. For the same compound, the “K1 (2T4K)” value ([5]; 0-40 min) was 0.051±0.008 (11) mL·mL^−1·min^−1, the “VT (2T4K)” value ([5]; 0-40 min) was 0.788±0.087 (2) mL·mL^−1 and the “k2 (2T4K)” value ([5]; 0-40 min) was 0.123±0.052 (57) min^−1. For the same compound, the “k3 (2T4K)” value ([5]; 0-40 min) was 0.156±0.080 (123) min^−1, the “k4 (2T4K)” value ([5]; 0-40 min) was 0.191±0.063 (42) min^−1 and the “EC50, K1–K1 baseline (2T4K)” value [6, 13] was 0.441 ± 0.081 µg/mL (≈ 0.682 µM). For the same compound, the “EC50, VT–VT baseline (2T4K)” value [6, 13] was 0.544 ± 0.032 µg/mL (≈ 0.841 µM), the “Tariquidar plasma concentration at which brain VT approached plateau levels” value ([6]; rats) was > 1,000 ng/mL and the “Terminal elimination half-life from plasma” value [7] was 13 to 23 h. For the same compound, the “Tariquidar plasma concentration at the time of the PET scan” value [8] was “up to 7,000 ng/mL”, the “Block of Pgp in CD56-positive lymphocytes” value [9] was 100% and the “Increase in brain penetration of [^11C]-N-desmethyl-loperamide” value (Pgp at the human BBB [10]) was 25%. The “Effect of tariquidar on degree of plasma protein binding of (R)-[^11C]verapamil” value [11] was “does not influence” and the “Inhibition of BCRP” value [12] was “inhibits”.
